Measurements: US12605402B2, “Therapeutic uses of oxidizing hypotonic acid solutions” (APR Applied Pharma Research SA, priority 2019, dated 2026)
Read-outs that look alike come from different tables or passages of the source.

Tests used:
SARS-CoV-2 = assay type: cell-based; details: concentration 90% (solution), 63% (ethanol); for Virus Titer: virus control 3.5

CCO [Ethanol]
toxicity to cells (Vero 76 cells): toxic to cells | LRV (log reduction value) compared to the virus control (SARS-CoV-2; Contact Time 3 min): >1.8 | Virus Titer (SARS-CoV-2; Contact Time 3 min): <1.7 Log10 CCID50 of virus per 0.1 mL | LRV (log reduction value) compared to the virus control (SARS-CoV-2; Contact Time <1 min): >1.8 | Virus Titer (SARS-CoV-2; Contact Time <1 min): <1.7 Log10 CCID50 of virus per 0.1 mL
